Consider 30 molecules from patent US9221791B2, “Metalloenzyme inhibitor compounds” (Viamet Pharmaceuticals, Inc., priority 2011, dated 2015).

≈ marks a conversion by molar mass, not a printed value.

The test system of the first assay is Septoria tritici (ATCC 26517). The assay is described as follows: Minimum Inhibitory Concentration (MIC) (Septoria tritici), CLSI-based microdilution. The format is cell-based. As to conditions: S. tritici ATCC 26517; 22° C. for seven days; 50% reduction in growth. On the procedure:
C. Minimum Inhibitory Concentration (MIC) (Septoria tritici)
Compounds of the present disclosure were assessed for their ability to inhibit the growth of a common strain of the fungal plant pathogen Septoria tritici (ATCC 26517) using a procedure based on a Clinical and Laboratory Standards Institute (CLSI) microdilution assay protocol for filamentous fungi.
Stock solutions of the test compounds and standards were prepared in DMSO at 6400 μg/mL. Each stock solution was used to prepare a 2-fold dilution series ranging from 16 to 0.016 μg/mL (total of 11 compound concentrations) in RPMI-1640 (Roswell Park Memorial Institute) medium containing 3-(N-morpholino)propanesulfonic acid (MOPS) buffer and 2% DMSO. A 100 μL aliquot of the dilutions was added to columns 1 (16 μg/mL compound) through 11 (0.016 μg/mL compound) of a 96-well microtiter plate. This format was replicated in a second row of the microtiter plate. Thus, each microtiter plate could include 11 concentrations of four test or control compounds replicated twice. A 100 μL aliquot of RPMI-1640/MOPS/2% DMSO medium was added to column 12 (no compound control) of the microtiter plate.
A fresh culture of S. tritici was used to prepare a solution of approximately 5×10^4 colony-forming units per milliliter (cfu/mL) in RPMI/MOPS medium without DMSO. A 100 µL aliquot of this solution was added to all 96 wells in the microtiter plate. […] The assay plates were incubated at 22° C. for seven days in the dark without shaking.
In each case of Table 3 the Septoria rating scale is as follows: […]
As to `OC(Cn1cnnn1)(c1ccc(F)cc1F)C(F)(F)c1ccc(-c2ccc(Cl)nc2)cn1` (stereo not drawn) [30(+), 1-(6′-Chloro-[3,3′-bipyridin]-6-yl)-2-(2,4-difluorophenyl)-1,1-difluoro-3-(1H-tetrazol-1-yl)propan-2-ol], the “Septoria Rating (MIC)” value is listed as “B (>1.5-1.5)”. As to `OC(Cn1cnnn1)(c1ccc(F)cc1F)C(F)(F)c1ccc(-c2ccc(F)nc2)cn1` (stereo not drawn) [31(+), 2-(2,4-Difluorophenyl)-1,1-difluoro-1-(6′-fluoro-[3,3′-bipyridin]-6-yl)-3-(1H-tetrazol-1-yl)propan-2-ol], the “Septoria Rating (MIC)” value is “A (≦0.5)”.

The assay is the same for the next values; noted with them: Zymoseptoria tritici, ATCC26517, 168 h, S. tritici ATCC 26517; 22° C. for seven days; 50% reduction in growth; read-out: Septoria Rating (MIC).
Turning to `OC(Cn1cnnn1)(c1ccc(F)cc1F)C(F)(F)c1cc(F)ccn1` (single isomer, unassigned) [ent-13, 2-(2,4-Difluorophenyl)-1,1-difluoro-1-(4-fluoropyridin-2-yl)-3-(1H-tetrazol-1-yl)propan-2-ol], the MIC stood at 1.5 µg/mL (≈ 4.04 µM). `N#C/C=C/c1ccc(C(F)(F)C(O)(Cn2cnnn2)c2ccc(F)cc2F)nc1` (stereo not drawn) [Compound 3, (E)-3-(6-(2-(2,4-Difluorophenyl)-1,1-difluoro-2-hydroxy-3-(1H-tetrazol-1-yl)propyl)pyridin-3-yl)acrylonitrile]: the MIC worked out at 1.5 µg/mL (≈ 3.71 µM). For the molecule `CCOC(=O)CCc1ccc(C(F)(F)C(O)(Cn2cnnn2)c2ccc(F)cc2F)nc1` (stereo not drawn) [Compound 5, Ethyl 3-(6-(2-(2,4-difluorophenyl)-1,1-difluoro-2-hydroxy-3-(1H-tetrazol-1-yl)propyl)pyridin-3-yl)propanoate], the MIC is at most 0.5 µg/mL. As to `CC(=O)/C=C/c1ccc(C(F)(F)C(O)(Cn2cnnn2)c2ccc(F)cc2F)nc1` (stereo not drawn) [Compound 7, (E)-4-(6-(2-(2,4-Difluorophenyl)-1,1-difluoro-2-hydroxy-3-(1H-tetrazol-1-yl)propyl)pyridin-3-yl)but-3-en-2-one], the MIC lay within 1.5 to 4 µg/mL (≈ 3.56 to 9.49 µM). Consider `CC(=O)CCc1ccc(C(F)(F)C(O)(Cn2cnnn2)c2ccc(F)cc2F)nc1` (stereo not drawn) [Compound 8, 4-(6-(2-(2,4-Difluorophenyl)-1,1-difluoro-2-hydroxy-3-(1H-tetrazol-1-yl)propyl)pyridin-3-yl)butan-2-one], for which the MIC is 1.5 µg/mL (≈ 3.54 µM). Consider `OC(Cn1cnnn1)(c1ccc(F)cc1F)C(F)(F)c1ccc(-n2nccn2)cn1` (stereo not drawn) [Compound 9, 1-(5-(2H-1,2,3-Triazol-2-yl)pyridin-2-yl)-2-(2,4-difluorophenyl)-1,1-difluoro-3-(1H-tetrazol-1-yl)propan-2-ol], for which the MIC lay within 1.5 to 4 µg/mL (≈ 3.57 to 9.52 µM). With `OC(Cn1cnnn1)(c1ccc(Cl)cc1F)C(F)(F)c1ccccn1` (stereo not drawn) [Compound 11, 2-(4-Chloro-2-fluorophenyl)-1,1-difluoro-1-(pyridin-2-yl)-3-(1H-tetrazol-1-yl)propan-2-ol], the MIC was in the range of 1.5 to 4 µg/mL (≈ 4.06 to 10.8 µM).

In the case of `OC(Cn1cnnn1)(c1ccc(F)cc1F)C(F)(F)c1ccc(Cl)cn1` (stereo not drawn) [Compound 12, 1-(5-Chloropyridin-2-yl)-2-(2,4-difluorophenyl)-1,1-difluoro-3-(1H-tetrazol-1-yl)propan-2-ol], the MIC is 1.5 µg/mL (≈ 3.87 µM). Turning to `OC(Cn1cnnn1)(c1ccc(F)cc1F)C(F)(F)c1cc(Cl)ccn1` (stereo not drawn) [Compound 14, 1-(4-Chloropyridin-2-yl)-2-(2,4-difluorophenyl)-1,1-difluoro-3-(1H-tetrazol-1-yl)propan-2-ol], the MIC lay within 1.5 to 4 µg/mL (≈ 3.87 to 10.3 µM). For `OC(Cn1cnnn1)(c1ccc(F)cc1F)C(F)(F)c1ccc(C(F)(F)F)cn1` (stereo not drawn) [Compound 19, 2-(2,4-Difluorophenyl)-1,1-difluoro-3-(1H-tetrazol-1-yl)-1-(5-(trifluoromethyl)pyridin-2-yl)propan-2-ol], the MIC was 1.5 to 4 µg/mL (≈ 3.56 to 9.49 µM). Take `OC(Cn1cnnn1)(c1ccc(F)cc1F)C(F)(F)c1cccc(Br)n1` (stereo not drawn) [Compound 20, 1-(6-Bromopyridin-2-yl)-2-(2,4-difluorophenyl)-1,1-difluoro-3-(1H-tetrazol-1-yl)propan-2-ol]: the MIC fell in the range of 1.5 to 4 µg/mL (≈ 3.47 to 9.26 µM).

As for `OC(Cn1cnnn1)(c1cc(F)ccc1F)C(F)(F)c1ccc(Br)cn1` (stereo not drawn) [Compound 21, 1-(5-Bromopyridin-2-yl)-2-(2,5-difluorophenyl)-1,1-difluoro-3-(1H-tetrazol-1-yl)propan-2-ol], the MIC is over 4 µg/mL. On to `OC(Cn1cnnn1)(c1ccc(C(F)(F)F)cc1F)C(F)(F)c1ccc(Br)cn1` (stereo not drawn) [Compound 23, 1-(5-Bromopyridin-2-yl)-1,1-difluoro-2-(2-fluoro-4-(trifluoromethyl)phenyl)-3-(1H-tetrazol-1-yl)propan-2-ol], for which the minimal inhibitory concentration (MIC) fell in the range of 1.5 to 4 µg/mL (≈ 3.11 to 8.3 µM). On to `OC(Cn1cnnn1)(c1ccc(F)cc1F)C(F)(F)c1cc(Br)ccn1` (stereo not drawn) [Compound 24, 1-(4-Bromopyridin-2-yl)-2-(2,4-difluorophenyl)-1,1-difluoro-3-(1H-tetrazol-1-yl)propan-2-ol], for which the minimum inhibitory concentration (MIC) is 1.5 to 4 µg/mL (≈ 3.47 to 9.26 µM). Take `OC(Cn1cnnn1)(c1ccc(F)cc1F)C(F)(F)c1ccc(-c2ccc(C(F)(F)F)nc2)cn1` (stereo not drawn) [Compound 35, 2-(2,4-Difluorophenyl)-1,1-difluoro-3-(1H-tetrazol-1-yl)-1-(6′-(trifluoromethyl)-[3,3′-bipyridin]-6-yl)propan-2-ol]: the MIC was in the range of 1.5 to 4 µg/mL (≈ 3.01 to 8.03 µM). `COc1ncc(-c2ccc(C(F)(F)C(O)(Cn3cnnn3)c3ccc(F)cc3F)nc2)cn1` (stereo not drawn) [Compound 37, 2-(2,4-Difluorophenyl)-1,1-difluoro-1-(5-(2-methoxypyrimidin-5-yl)pyridin-2-yl)-3-(1H-tetrazol-1-yl)propan-2-ol]: the MIC was 1.5 to 4 µg/mL (≈ 3.25 to 8.67 µM). Turning to `COC(=O)CSc1ccc(C(F)(F)C(O)(Cn2cnnn2)c2ccc(F)cc2F)nc1` (stereo not drawn) [Compound 41, Methyl 2-((6-(2-(2,4-difluorophenyl)-1,1-difluoro-2-hydroxy-3-(1H-tetrazol-1-yl)propyl)pyridin-3-yl)thio)acetate], the MIC was over 4 µg/mL.

Consider `OC(Cn1cnnn1)(c1ccc(F)cc1F)C(F)(F)c1ccc(/C=C/Cn2cnnn2)cn1` (stereo not drawn) [Compound 42, (E)-1-(5-(3-(1H-Tetrazol-1-yl)prop-1-en-1-yl)pyridin-2-yl)-2-(2,4-difluorophenyl)-1,1-difluoro-3-(1H-tetrazol-1-yl)propan-2-ol], for which the MIC was over 4 µg/mL. With `OC/C=C/c1ccc(C(F)(F)C(O)(Cn2cnnn2)c2ccc(F)cc2F)nc1` (stereo not drawn) [Compound 43, (E)-3-(6-(2-(2,4-Difluorophenyl)-1,1-difluoro-2-hydroxy-3-(1H-tetrazol-1-yl)propyl)pyridin-3-yl)prop-2-en-1-ol], the MIC fell in the range of 1.5 to 4 µg/mL (≈ 3.66 to 9.77 µM). On the same count and under the same terms, under `OCCCc1ccc(C(F)(F)C(O)(Cn2cnnn2)c2ccc(F)cc2F)nc1` (stereo not drawn) [Compound 44, 3-(6-(2-(2,4-Difluorophenyl)-1,1-difluoro-2-hydroxy-3-(1H-tetrazol-1-yl)propyl)pyridin-3-yl)propan-1-ol] stands 1.5 to 4 µg/mL (≈ 3.65 to 9.72 µM); under `CC(O)/C=C/c1ccc(C(F)(F)C(O)(Cn2cnnn2)c2ccc(F)cc2F)nc1` (stereo not drawn) [Compound 46, (E)-4-(6-(2-(2,4-Difluorophenyl)-1,1-difluoro-2-hydroxy-3-(1H-tetrazol-1-yl)propyl)pyridin-3-yl)but-3-en-2-ol], 1.5 to 4 µg/mL (≈ 3.54 to 9.45 µM).

For `CC(O)CCc1ccc(C(F)(F)C(O)(Cn2cnnn2)c2ccc(F)cc2F)nc1` (stereo not drawn) [Compound 47, 4-(6-(2-(2,4-Difluorophenyl)-1,1-difluoro-2-hydroxy-3-(1H-tetrazol-1-yl)propyl)pyridin-3-yl)butan-2-ol], the MIC lay within 1.5 to 4 µg/mL (≈ 3.53 to 9.4 µM). Consider `COC/C=C/c1ccc(C(F)(F)C(O)(Cn2cnnn2)c2ccc(F)cc2F)nc1` (stereo not drawn) [Compound 48, (E)-2-(2,4-Difluorophenyl)-1,1-difluoro-1-(5-(3-methoxyprop-1-en-1-yl)pyridin-2-yl)-3-(1H-tetrazol-1-yl)propan-2-ol], for which the MIC came to 1.5 µg/mL (≈ 3.54 µM). `COC/C=C\c1ccc(C(F)(F)C(O)(Cn2cnnn2)c2ccc(F)cc2F)nc1` (stereo not drawn) [Compound 49, (Z)-2-(2,4-Difluorophenyl)-1,1-difluoro-1-(5-(3-methoxyprop-1-en-1-yl)pyridin-2-yl)-3-(1H-tetrazol-1-yl)propan-2-ol]: the MIC was at most 0.5 µg/mL.

Regarding `COCCCc1ccc(C(F)(F)C(O)(Cn2cnnn2)c2ccc(F)cc2F)nc1` (stereo not drawn) [Compound 50, 2-(2,4-Difluorophenyl)-1,1-difluoro-1-(5-(3-methoxypropyl)pyridin-2-yl)-3-(1H-tetrazol-1-yl)propan-2-ol], the minimum inhibitory concentration (MIC) was found to be 1.5 µg/mL (≈ 3.53 µM). On to `CC(C)OCCCc1ccc(C(F)(F)C(O)(Cn2cnnn2)c2ccc(F)cc2F)nc1` (stereo not drawn) [Compound 55, 2-(2,4-Difluorophenyl)-1,1-difluoro-1-(5-(3-isopropoxypropyl)pyridin-2-yl)-3-(1H-tetrazol-1-yl)propan-2-ol], for which the MIC is at most 0.5 µg/mL. On to `OC(c1ccc(C(F)(F)C(O)(Cn2cnnn2)c2ccc(F)cc2F)nc1)C(F)(F)F` (stereo not drawn) [Compound 56, (2-(2,4-Difluorophenyl)-1,1-difluoro-3-(1H-tetrazol-1-yl)-1-(5-(2,2,2-trifluoro-1-hydroxyethyl)pyridin-2-yl)propan-2-ol)], for which the MIC was over 4 µg/mL. Consider `OC(Cn1cnnn1)(c1ccc(F)cc1F)C(F)(F)c1ccc(-c2cnc(Cl)nc2)cn1` (stereo not drawn) [Compound 57, 1-(5-(2-Chloropyrimidin-5-yl)pyridin-2-yl)-2-(2,4-difluorophenyl)-1,1-difluoro-3-(1H-tetrazol-1-yl)propan-2-ol], for which the MIC was over 4 µg/mL.
